According to the supplement of paper PMC10307832:

Key:
Test in all cases: relative viability (nuclei count vs DMSO), 5 days (fraction); higher = more cells survive
ABC-1 = tested on: ABC-1
Outline: (§1)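 Relative viability divides the nuclei count in treated wells by that in vehicle wells. Lung cancer cell lines were seeded in 1536-well plates, dosed by pin tool the next day, and fixed and stained after 5 days in one step with final 0.05% Triton X-100, 1% formaldehyde and 1 ug/ml Hoechst. Dosing was a single drug or a fixed anchor-drug dose plus five library-drug doses (not always all listed) in √10 steps, and values are medians of duplicate plates imaged at 4×.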

COR-L23 = tested on: COR-L23
Outline: as §1

EPLC-272H = tested on: EPLC-272H
Outline: as §1

HARA = tested on: HARA
Outline: as §1

HCC-15 = tested on: HCC-15
Outline: as §1

HCC-44 = tested on: HCC-44
Outline: as §1

HOP-62 = tested on: HOP-62
Outline: as §1

LC-2-ad = tested on: LC-2-ad
Outline: as §1

LU99A = tested on: LU99A
Outline: as §1

NCI-H1355 = tested on: NCI-H1355
Outline: as §1

NCI-H1651 = tested on: NCI-H1651
Outline: as §1

Cc1sc2c(c1C)C(c1ccc(Cl)cc1)=N[C@@H](CC(=O)OC(C)(C)C)c1nnc(C)n1-2 [JQ1] + Cc1cc(Nc2cc(N3CCN(C)CC3)nc(Sc3ccc(NC(=O)C4CC4)cc3)n2)n[nH]1 [Tozasertib] (partner 0.1 µM)
relative viability (ABC-1; first compound 0.04 µM): 0.187 | relative viability (ABC-1; first compound 0.1265 µM): 0.18 | relative viability (ABC-1; first compound 0.4 µM): 0.196 | relative viability (ABC-1; first compound 1.265 µM): 0.175 | relative viability (ABC-1; first compound 4 µM): 0.179 | relative viability (COR-L23; first compound 0.04 µM): 0.217 | relative viability (COR-L23; first compound 0.1265 µM): 0.148 | relative viability (COR-L23; first compound 0.4 µM): 0.154 | relative viability (COR-L23; first compound 1.265 µM): 0.11 | relative viability (COR-L23; first compound 4 µM): 0.109 | relative viability (EPLC-272H; first compound 0.04 µM): 0.418 | relative viability (EPLC-272H; first compound 0.1265 µM): 0.24 | relative viability (EPLC-272H; first compound 0.4 µM): 0.373 | relative viability (EPLC-272H; first compound 1.265 µM): 0.257 | relative viability (EPLC-272H; first compound 4 µM): 0.258 | relative viability (HARA; first compound 0.04 µM): 0.112 | relative viability (HARA; first compound 0.1265 µM): 0.122 | relative viability (HARA; first compound 0.4 µM): 0.123 | relative viability (HARA; first compound 1.265 µM): 0.08 | relative viability (HARA; first compound 4 µM): 0.0561 | relative viability (HCC-15; first compound 0.04 µM): 0.417 | relative viability (HCC-15; first compound 0.4 µM): 0.314 | relative viability (HCC-15; first compound 1.265 µM): 0.119 | relative viability (HCC-15; first compound 4 µM): 0.0896 | relative viability (HCC-44; first compound 0.04 µM): 0.888 | relative viability (HCC-44; first compound 0.1265 µM): 0.345 | relative viability (HCC-44; first compound 0.4 µM): 0.326 | relative viability (HCC-44; first compound 1.265 µM): 0.286 | relative viability (HCC-44; first compound 4 µM): 0.136 | relative viability (HOP-62; first compound 0.04 µM): 0.361 | relative viability (HOP-62; first compound 0.1265 µM): 0.305 | relative viability (HOP-62; first compound 0.4 µM): 0.192 | relative viability (HOP-62; first compound 1.265 µM): 0.122 | relative viability (HOP-62; first compound 4 µM): 0.122 | relative viability (LC-2-ad; first compound 0.04 µM): 0.45 | relative viability (LC-2-ad; first compound 0.1265 µM): 0.351 | relative viability (LC-2-ad; first compound 0.4 µM): 0.351 | relative viability (LC-2-ad; first compound 1.265 µM): 0.297 | relative viability (LC-2-ad; first compound 4 µM): 0.232 | relative viability (LU99A; first compound 0.04 µM): 0.277 | relative viability (LU99A; first compound 0.1265 µM): 0.304 | relative viability (LU99A; first compound 0.4 µM): 0.237 | relative viability (LU99A; first compound 1.265 µM): 0.188 | relative viability (LU99A; first compound 4 µM): 0.159 | relative viability (NCI-H1355; first compound 0.04 µM): 0.522 | relative viability (NCI-H1355; first compound 0.1265 µM): 0.387 | relative viability (NCI-H1355; first compound 0.4 µM): 0.324 | relative viability (NCI-H1355; first compound 1.265 µM): 0.23 | relative viability (NCI-H1355; first compound 4 µM): 0.202 | relative viability (NCI-H1651; first compound 0.04 µM): 0.69 | relative viability (NCI-H1651; first compound 0.1265 µM): 0.683 | relative viability (NCI-H1651; first compound 0.4 µM): 0.672 | relative viability (NCI-H1651; first compound 1.265 µM): 0.31 | relative viability (NCI-H1651; first compound 4 µM): 0.24
